The series has as its system female Wistar rats. Briefly: Paclitaxel-induced abnormal thermoesthesia, latent period for pseudo pain reactions (hot water bath 45° C.). Format: in vivo, rat. Conditions: paclitaxel alone. As for the experimental part:
Paclitaxel was intravenously administered at a dose of 6 mg/kg once daily to female Wistar rats (8 rats per group) (the initial dosage date was defined as day 0). Treatment was repeated five times every other day.
The efficacy of 2,2′-dithiobis ethane sulfonate on the abnormal thermoesthesia occurring in response to the paclitaxel therapy was assessed using, as an index, a latent period for pseudo pain reactions. […] Each pseudo pain reaction-related latent period was measured on the day before the initial paclitaxel dosage (day −1, pretreatment), and daily for three days from the next day after the final paclitaxel dosage (from days 9 to 11, post-treatment), i.e., totally four times.
2,2′-dithiobis ethane sulfonate was, dissolved in water for injection to make its concentration 200 mg/ml upon use and the 2,2′-dithiobis ethane sulfonate solution thus prepared was intravenously administered at the dose of 500 mg/kg or 1,000 mg/kg immediately before the paclitaxel administration.

Take `CC(=O)O[C@H]1C(=O)[C@@]2(C)[C@H]([C@H](OC(=O)c3ccccc3)[C@]3(O)C[C@H](OC(=O)[C@H](O)[C@@H](NC(=O)c4ccccc4)c4ccccc4)C(C)=C1C3(C)C)[C@]1(OC(C)=O)CO[C@@H]1C[C@@H]2O` [Paclitaxel, paclitaxel, reference compound]: the latent period by setting is: (day 9 post-treatment) 18.9 ± 1.4 s; (day 10 post-treatment) 19.9 ± 2.2 s; (day 11 post-treatment) 19.4 ± 2.4 s; (prior to the initiation of paclitaxel administration (pretreatment)) 9.4 ± 1.0 s. Under “p<0.01, student's t-test or Man-Whitney U-test”, the “latent periods compared with control groups” value is given as “significantly elongated”.

Values taken from patent publication US8710095B2, “Drugs for prophylaxis or mitigation of taxane-induced neurotoxicity” (Bionumerik Pharmaceuticals, Inc., priority 2002, dated 2014).
